# Laboratory results from patent EP0409176B1, “Method and materials for detecting pathology from alterations in estrogen metabolism” (THE ROCKEFELLER UNIVERSITY, priority 1989, dated 1991).
# What was measured:
# [1] = system: 2OHE1 antiserum; assay: Radioimmunoassay cross-reactivity of the anti-2OHE1 antiserum; type: binding; conditions: antiserum raised against bovine serum albumin linked to 2-hydroxyestrone 17-carboxymethyloxime
# Text: Antibodies to 16α-OHE1, E2 and E3 were raised as described previously (Fishman, J., et al., SCIENCE, 204:1089-1091 (1979); Ikegawa, S., et al., J. STEROID BIOCHEM., 18:329-332 (1983)), while the anti-2OHE1 antiserum was a gift of Dr. Kanbegawa (Teikyo University, Japan) and was raised against bovine serum albumin linked to 2-hydroxyestrone 17-carboxymethyloxime. Cross-reactivities of the 2OHE1 antiserum with E1, E2 and E3, 16αOHE1, 2MeOE1, and 2-hydroxyestradiol (2OHE2) were 1.3%, 0.6%, 0.01%, 0.03%, 0.11% and 1.7%, respectively.
# Each urine sample (1 or 2 mL) contained approximately 3000 dpm of […] steroid used to determine recovery, and was applied to a C18 Sep-pak cartridge followed by elution with 5 mL of methanol. The eluate was dried in vacuo and hydrolyzed with Glusulase for 12 h at 37°C. The hydrolyzed steroids were again extracted on a C18 Sep-pak cartridge and eluted with 5 mL of methanol. Aliquots of this final eluate were taken for determination of recovery (averaging 90-95%) and duplicate radioimmunoassay (100 µL). In order to prevent auto-oxidation of catecholestrogens, ascorbic acid (1%) was used in all stages of the assay. Radiolabeled steroids and antisera were incubated with the specimens overnight at 4°C, and radioactivity was measured with a Packard model 3000 scintillation counter. Estrogen levels are expressed relative to urinary creatinine concentration. Statistical analysis was performed with an unpaired t-test. Unless otherwise specified, all values are reported as means ± SEM.
# [2] = system: estradiol hydroxylation at both the C-2 and C-16α sites; conditions: cited from earlier work
# [3] = system: cytochrome P-450-dependent metabolism of estradiol; conditions: cited from earlier work
# [4] = system: 16α-hydroxylation of estradiol; conditions: 800 mg per dose twice daily oral for two weeks; nine normal male volunteers; radiometric analysis; cited from earlier work
# [5] = system: cytochrome P-450-dependent metabolism of estradiol; conditions: 800 mg per dose twice daily oral for two weeks; nine normal male volunteers; P<0.04; cited from earlier work
# [6] = system: hepatic estradiol 2-hydroxylation; assay: Extent of estradiol 2-hydroxylation after indole-3-carbinol administration; type: in vivo; conditions: 500 mg daily for one week, humans
# Protocol: (§1) In this study by two of the inventors herein, which study was just recently published, certain dietary indoles were examined for their induction of hepatic estradiol 2-hydroxylation. In particular, indole-3-carbinol (I3C) was administered to humans at a rate of 500 mg daily for one week.
# [7] = system: estradiol 2-hydroxylation; assay: Urinary estrogen metabolites and ratios before and after I3C or high fiber diet; type: in vivo, humans
# Protocol: as §1
# In conjunction with this study, certain comparative data were developed between the administration of I3C to women and men, and the administration of a high fiber diet to women. The comparative results are presented in Table 6A, B and C below, wherein Table 6A represents the data from women taking I3C, Table 6B represents the data respecting the women who were placed on a high fiber diet, and Table 6C represents the data gathered from the sample of men who were administered I3C.
# [8] = after thyroxine administration versus baseline
structure (smiles),measurement,setting,value
"C[C@]12CC[C@@H]3c4ccc(O)cc4CC[C@H]3[C@@H]1C[C@@H](O)[C@@H]2O [E3, estriol]",Cross-reactivities of the 2OHE1 antiserum,[1],0.01%
"N[C@@H](Cc1cc(I)c(Oc2cc(I)c(O)c(I)c2)c(I)c1)C(=O)O [Thyroxine, thyroxine]",Urinary 16αOHE1,"[2]; Post: following two weeks of thyroxine (4.3 mcg/kg/d), mean ± SEM, Pre 2.07 ± 0.24, NS",2.24 ± 0.17 µg creatinine
same,Urinary E2,"[2]; Post: following two weeks of thyroxine (4.3 mcg/kg/d), mean ± SEM, Pre 2.78 ± 0.23, NS",3.03 ± 0.27 µg creatinine
same,Urinary 2OHE1,"[2]; Post: following two weeks of thyroxine (4.3 mcg/kg/d), mean ± SEM, Pre 2.88 ± 0.32, P 0.01",5.30 ± 0.85 µg creatinine
same,Urinary E3,"[2]; Post: following two weeks of thyroxine (4.3 mcg/kg/d), mean ± SEM, Pre 5.84 ± 0.88, NS",5.37 ± 0.78 µg creatinine
same,Urinary E1,"[2]; Post: following two weeks of thyroxine (4.3 mcg/kg/d), mean ± SEM, Pre 7.36 ± 0.39, NS",7.30 ± 0.74 µg creatinine
same,Urinary Total estrogens,"[2]; Post: following two weeks of thyroxine (4.3 mcg/kg/d), mean ± SEM, Pre 20.93 ± 1.58, NS",23.24 ± 2.41. µg creatinine
same,index [2OHE1]/[E3] change after thyroxine administration,[2]; [8],nearly doubled
same,urinary 2-hydroxyestrone after thyroxine administration,[2]; [8],significantly greater
same,[2OHE1]/[E3],"[2]; urinary ratio, Post: following two weeks of thyroxine (4.3 mcg/kg/d), Pre 0.56 ± 0.09, P 0.01",1.05 ± 0.14
"COc1cc2c(cc1O)CC[C@@H]1[C@@H]2CC[C@]2(C)C(=O)CC[C@@H]12 [2MeOE1, 2-methoxyestrone]",Cross-reactivities of the 2OHE1 antiserum,[1],0.11%
CN/C(=N/CCSCc1nc[nH]c1C)NC#N [Cimetidine],urinary excretion of 2-hydroxyestrone decreased,"[3]; 800 mg per dose twice daily oral for two weeks, nine normal male volunteers, P<0.0002",approximately 25%
same,Urinary Excretion of Total estrogens,"[3]; After Cimetidine 800 mg orally twice a day for 14 days, sum of estrone, estradiol, estriol, 16α-hydroxyestrone, 2-hydroxyestrone, n=9, before 10.7 ± 1.1, P 0.02",9.9 ± 0.9 nmol/nmol of creatinine
same,Urinary Excretion of 16α-Hydroxyestrone,"[3]; After Cimetidine 800 mg orally twice a day for 14 days, timed overnight urine, mean ± SEM, n=9, before 1.08 ± 0.11, NS",1.05 ± 0.08 nmol/nmol of creatinine
same,Urinary Excretion of Estradiol,"[3]; After Cimetidine 800 mg orally twice a day for 14 days, timed overnight urine, mean ± SEM, n=9, before 1.28 ± 0.15, NS",1.25 ± 0.10 nmol/nmol of creatinine
same,Urinary Excretion of 2-Hydroxyestrone,"[3]; After Cimetidine 800 mg orally twice a day for 14 days, timed overnight urine, mean ± SEM, n=9, before 1.71 ± 0.20, P 0.0002",1.27 ± 0.19 nmol/nmol of creatinine
same,Urinary Excretion of Estrone,"[3]; After Cimetidine 800 mg orally twice a day for 14 days, timed overnight urine, mean ± SEM, n=9, before 3.80 ± 0.34, P 0.03",3.32 ± 0.26 nmol/nmol of creatinine
same,ratio of 2-hydroxyestrone to estriol reduced,[3]; after Cimetidine treatment,approximately 40%
same,2-Hydroxyestrone/estriol,"[3]; urinary ratio After Cimetidine 800 mg orally twice a day for 14 days, mean ± SEM, n=9, before 0.74 ± 0.18, P 0.015",0.47 ± 0.10
same,16α-hydroxylation of estradiol,[4],unaffected
same,serum concentration of estradiol increased,[5],approximately 20%
"C[C@]12CC[C@@H]3c4ccc(O)cc4CC[C@H]3[C@@H]1C[C@@H](O)C2=O [16αOHE1, 16α-hydroxyestrone]",Cross-reactivities of the 2OHE1 antiserum,[1],0.03%
C[C@]12CC[C@@H]3c4cc(O)c(O)cc4CC[C@H]3[C@@H]1CC[C@@H]2O [2-hydroxyestradiol],Cross-reactivities of the 2OHE1 antiserum,[1],1.7%
"OCc1c[nH]c2ccccc12 [I3C, indole-3-carbinol]",extent of estradiol 2-hydroxylation,[6],significantly increased
same,[2OHE1]/[E3],"[7]; Men Taking I3C (N=7), Post, Pre 1.06 ± 0.11, P <0.02",2.04 ± 0.35
same,[E3],"[7]; Men Taking I3C (N=7), Post, Pre 6.4 ± 1.8, P <0.006",4.2 ± 1.3
same,[2OHE1],"[7]; Men Taking I3C (N=7), Post, Pre 6.6 ± 2.3, NS",8.2 ± 3.5
same,[E1],"[7]; Men Taking I3C (N=7), Post, Pre 8.4 ± 1.8, NS",8.9 ± 2.3
same,[E3]/[E1],"[7]; Women (N=5), Post, Pre 1.04 ± 0.20, NS",0.74 ± 0.11
same,[2OHE1]/[E1],"[7]; Women (N=5), Post, Pre 1.15 ± 0.24, P <0.05",1.53 ± 0.20
same,[2OHE1]/[E3],"[7]; Women (N=5), Post, Pre 1.27 ± 0.30, P <0.005",2.35 ± 0.50
same,induction of estradiol 2-hydroxylation,[7]; conclusion from Tables 6A-C,potent inducers
